Reference: patent US20260102457A1, “ANTICOAGULANT-PEPTIDE NANOGRANULES FOR THROMBOSIS-ACTUATED ANTICOAGULATION” (The Penn State Research Foundation, priority 2022, published 2026)
Where no end group is shown, it is not given here.

Experiments:
[1] = tested on: bovine platelet rich plasma (PRP); conditions: equivalent heparin concentration of 2 μg/mL, FIG. 3b
Procedure: Here, bovine PRP was acquired from the top clear layer after centrifuging citrated bovine whole blood at 600 rcf for 30 minutes (4° C.) with minimum acceleration/break ramps. […] Clot formation was initiated by combining 450 μL bovine PRP, 50 μL HMG treatment solution, and 50 μL 0.1M CaCl2) in a 24-well plate. DI water was included as a negative control. Samples were mixed on an oscillating rocker plate and clotting time determined as the time required for observable aggregate formation upon recalcification.

activated platelets = assay: Platelet localization and binding (confocal microscopy, flow cytometry); format: cell-based, bovine; conditions: 15 minutes incubation
Procedure: Bovine platelets were acquired from bovine PRP by centrifugation (800 rcf, 15 minutes), labelled with DiI (5 μg/mL), washed, and resuspended in PBS. At the time of treatment, platelets were further centrifuged (800 rcf, 15 minutes) to replace PBS supernatant with treatment solutions. Treatments of AMCA/FITC HMG, FITC-MAD1, or AMCA-heparin were prepared in PBS at equivalent concentrations, incubated with platelet samples for 15 minutes and then transferred to 4-well chambered slide (500 μL) before imaging using an Olympus FluoView 1000 confocal microscope (Tokyo, Japan).
MAD1-platelet binding was analyzed via flow cytometry by resuspending platelets in PBS containing 1 mg/mL FITC-MAD1. Blank PBS was used as an untreated control. After a 15-minute incubation, treated platelets were centrifuged (800 rcf, 15 minutes) and resuspended in PBS before analysis using a Guava Flow Cytometer (Millipore Sigma; Burlington, MA). Data was analyzed by FlowJo software.

[2] = clinical background; cited from earlier work
[3] = In vivo heparin serum/plasma concentration over time; parameters: species or system C57BL/6J mice; conditions: for time of highest heparin serum concentration: first sampling timepoint; for time to complete clearance from serum: post administration; for heparin serum half-life (t1/2): single dose 10 IU heparin
Procedure: (§1) Murine studies were performed under IACUC protocol 202102036. HMG particles were prepared using rhodamine-heparin doped 20 vol % into unlabeled heparin before electrospray synthesis. Dialyzed HMG particles were concentrated by Centri Vap DNA Concentrator to achieve 0.5 mg/mL equivalent heparin. Sterile 10×PBS was diluted ten-fold into samples before injection of a 200 μL volume into C57BL/6J mice. Two groups (n=4) received free heparin given via tail vein injection or injected subcutaneously in the neck scruff. A third group (n=4) received HMG sample as a subcutaneous depot in the neck scruff. All mice received a final heparin dose of 10 IU. At each time point, mice were sacrificed, and blood samples collected into citrate tubes via cardiac puncture. Coagulation time was determined on whole blood samples via INTEM analysis on a ROTEM delta coagulation analyzer (Werfen; Bedford, MA). Clotting times were chosen to evaluate the efficacy of each treatment's ability to inhibit thrombin-linked platelet activation and initial fibrin polymerization/recruitment. INTEM coagulation analysis was selected based on its established sensitivity for the presence of heparin. For a typical experiment, serum is isolated via centrifugation (1000 rcf, 10 minutes) and fluorescence measurements taken (λex=560 nm, λem=590 nm). Kidney, liver, and spleen tissues were also collected and homogenized before centrifugation at 10,000 rcf for 20 minutes to remove bulk fibrous structures. 100 μL of the remaining supernatant was evaluated for heparin presence via fluorescence measurements (λex=560 nm, λem=590 nm) using a BioTek Cytation 3 Plate Reader.

whole blood coagulation = assay: In vivo anticoagulation: blood clotting time (INTEM, ROTEM); parameters: species or system C57BL/6J mice
Procedure: as §1

[4] = Tissue biodistribution of heparin (liver, kidney, spleen fluorescence); format: in vivo, C57BL/6J mice; conditions: kidneys
Procedure: as §1, with “INTEM coagulation analysis was selected based on its established sensitivity for the presence of heparin.” left out, “Kidney, liver, and spleen tissues were also collected and homogenized before centrifugation at 10,000 rcf for 20 minutes to remove bulk fibrous structures.” left out

Substance: KRWHWWRRHWVVW-NH2 [MAD1, de novo designed tryptophan-rich antitubercular peptide with C-terminal amido group]
- clotting time of blood treated with peptide alone [1]: significant increase in clotting time
- binding to activated platelets (activated platelets): high avidity

Substance: heparin
- plasma half-life (t1/2) [2]: ~1 h
- time of highest heparin serum concentration ([3]; intravenous): 30 min
- time to complete clearance from serum ([3]; intravenous): ~6 h
- heparin serum half-life (t1/2) ([3]; intravenous): 1.3 h
- time of transient spike in heparin serum concentration after dosing ([3]; subcutaneous): 4 to 6 h
- time of highest heparin serum concentration ([3]; subcutaneous): 30 min
- time to complete clearance from serum ([3]; subcutaneous): ~6 h
- heparin serum half-life (t1/2) ([3]; subcutaneous): 1.4 h
- blood clotting time (whole blood coagulation; intravenous, 0.5 hour time point): 35.5 min
- time to return to basal clotting activity (whole blood coagulation; intravenous, post administration, basal 3.5 minutes): approximately 2 hours
- change in clotting behavior (whole blood coagulation; subcutaneous, 0.5-24 hours): negligible changes in clotting behavior for all time points except 6 hours
- tissue biodistribution / clearance route of heparin ([4]; intravenous): initially excreted through the renal system, with additional hepatic clearance observed at ˜6 hours
- tissue biodistribution / clearance route of heparin ([4]; subcutaneous): early liver uptake that later shifted to renal clearance
